{"source": "patent US8055452B2", "about": "“Identification, monitoring and treatment of disease and characterization of biological condition using gene expression profiles” (Life Technologies Corporation, priority 2001, dated 2011)", "key": {"[1]": {"system": "Inflammation Gene Expression Panel of Table 1 (24 of 48 loci)", "assay": "Inflammation Gene Expression Panel in whole blood after single oral dose of prednisone", "type": "in vivo", "details": "single human subject, single 60 mg oral dose", "description": "(§1) For measuring the amount of a particular RNA in a sample, we have used methods known to one of ordinary skill in the art to extract and quantify transcribed RNA from a sample with respect to a constituent of a Gene Expression Panel. (See detailed protocols below. Also see PCT application publication number WO 98/24935 herein incorporated by reference for RNA analysis protocols). Briefly, RNA is extracted from a sample such as a tissue, body fluid, or culture medium in which a population of a subject might be growing. For example, cells may be lysed and RNA eluted in a suitable solution in which to conduct a DNAse reaction. First strand synthesis may be performed using a reverse transcriptase. Gene amplification, more specifically quantitative PCR assays, can then conducted and the gene of interest size calibrated against a marker such as 18S rRNA (Hirayama et al., Blood 92, 1998: 46-52). Samples are measured in multiple duplicates, for example, 4 replicates. Relative quantitation of the mRNA is determined by the difference in threshold cycles between the internal control and the gene of interest In an embodiment of the invention, quantitative PCR is performed using amplification, reporting agents and instruments such as those supplied commercially by Applied Biosystems (Foster City, Calif.). […]"}, "[2]": {"system": "5 genes of the Inflammation Gene Expression Panel", "assay": "Whole blood samples after prednisone dose, challenged with lipopolysaccharide, gene expression profile", "type": "in vivo, human", "details": "challenged with 0.1 ng/ml lipopolysaccharide", "protocol": "The samples were taken at the time of administration (t=0) of the prednisone, then at two and 24 hours after such administration. Each whole blood sample was challenged by the addition of 0.1 ng/ml of lipopolysaccharide (a Gram-negative endotoxin) and a gene expression profile of the sample, post-challenge, was determined."}, "[3]": {"system": "IL1A, IL1B, TNF, IFNG and IL10", "assay": "Acute Inflammation Index from whole blood gene expression of treated human subject", "type": "in vivo", "details": "single patient with optic neuritis; oral prednisone at 60 mg per day tapered to 10 mg per day, after IV steroid", "description": "as §1"}, "[4]": {"system": "inflammation index (Inflammation Gene Expression Panel loci)", "assay": "Inflammation index in rheumatoid arthritis patients under therapy", "type": "in vivo, human", "description": "FIG. 17A further illustrates the consistency of inflammatory gene expression, illustrated here with respect to 7 loci of (of the Inflammation Gene Expression Panel of Table 1), in a population of 44 normal, undiagnosed blood donors. For each individual locus is shown the range of values lying within ±2 standard deviations of the mean expression value, which corresponds to 95% of a normally distributed population. Notwithstanding the great width of the confidence interval (95%), the measured gene expression value (ΔCT)—remarkably—still lies within 10% of the mean, regardless of the expression level involved. As described in further detail below, for a given biological condition an index can be constructed to provide a measurement of the condition. This is possible as a result of the conjunction of two circumstances: (i) there is a remarkable consistency of Gene Expression Profiles with respect to a biological condition across a population and (ii) there can be employed procedures that provide substantially reproducible measurement of constituents in a Gene Expression Panel giving rise to a Gene Expression Profile, under measurement conditions wherein specificity and efficiencies of amplification for all constituents of the panel are substantially similar and which therefore provides a measurement of a biological condition. Accordingly, a function of the expression values of representative constituent loci of FIG. 17A is here used to generate an inflammation index value, which is normalized so that a reading of 1 corresponds to constituent expression values of healthy subjects, as shown in the right-hand portion of FIG. 17A.\nIn FIG. 17B, an inflammation index value was determined for each member of a population of 42 normal undiagnosed blood donors, and the resulting distribution of index values, shown in the figure, can be seen to approximate closely a normal distribution, notwithstanding the relatively small population size. The values of the index are shown relative to a 0-based median, with deviations from the median calibrated in standard deviation units. Thus […] of the population lies within +1 and −1 of a 0 value.\nFIG. 17C illustrates the use of the same index as FIG. 17B, where the inflammation median for a normal population has been set to zero and both normal and diseased subjects are plotted in standard deviation units relative to that median. An inflammation index value was determined for each member of a normal, undiagnosed population of 70 individuals (black bars). The resulting distribution of index values, shown in FIG. 17C, can be seen to approximate closely a normal distribution. Similarly, index values were calculated for individuals from two diseased population groups, (1) rheumatoid arthritis patients treated with methotrexate (MTX) who are about to change therapy to more efficacious drugs (e.g., TNF inhibitors) (hatched bars), and (2) rheumatoid arthritis patients treated with disease modifying anti-rheumatoid drugs (DMARDS) other than MTX, who are about to change therapy to more efficacious drugs (e.g., MTX). […] This figure thus illustrates the utility of an index to derived from Gene Expression Profile data to evaluate disease status and to provide an objective and quantifiable treatment objective. When these two populations were treated appropriately, index values from both populations returned to a more normal distribution (data not shown here).\nThis subject in fact was also on a regimen of an anti-inflammation steroid (prednisone) that was being tapered; within approximately one week after the inflammation index was sampled, the subject experienced a significant flare of clinical symptoms."}, "[5]": {"system": "Inflammation 48A and 48B loci; bacterial Gene Expression Panel of 24 genes", "assay": "Whole blood gene expression response to infectious agents or their products", "type": "cell-based", "details": "E. coli filtrate with added polymyxin B vs filtrate alone", "description": "FIGS. 27 through 41 illustrate the use of gene expression panels in early identification and monitoring of infectious disease. These figures plot the response, in expression products of the genes indicated, in whole blood, to the administration of various infectious agents or products associated with infectious agents. In each figure, the gene expression levels are “calibrated”, as that term is defined herein, in relation to baseline expression levels determined with respect to the whole blood prior to administration of the relevant infectious agent. […] The concentration change is shown ratiometrically, and the baseline level of 1 for a particular gene locus corresponds to an expression level for such locus that is the same, monitored at the relevant time after addition of the infectious agent or other stimulus, as the expression level before addition of the stimulus. […]\nFIG. 27 uses a novel bacterial Gene Expression Panel of 24 genes, developed to discriminate various bacterial conditions in a host biological system. […] The final concentration immediately after administration of the stimulus was 100 ng/mL, and the ratiometric changes in expression, in relation to pre-administration levels, were monitored for each stimulus 2 and 6 hours after administration. […]\nThe responses were monitored at 2, 6, and 24 hours after administration. […]"}, "[6]": {"system": "inflammation index (Inflammation Gene Expression Panel loci)", "details": "studies have shown; cited from earlier work"}, "[7]": {"system": "inflammation index (Inflammation Gene Expression Panel loci)", "assay": "Inflammation index in subject with inflammatory bowel disease", "type": "in vivo, human", "details": "single subject with inflammatory bowel disease", "description": "FIG. 24 illustrates use of the inflammation index for assessment of a single subject suffering from inflammatory bowel disease, for whom treatment with Remicade was initiated in three doses. […] Again, the index, besides providing a measure of biological condition, is here used to measure the effectiveness of therapy (Remicade), as well as to provide a target for therapeutic intervention in terms of both dose and schedule."}, "[8]": {"details": "10 stable rheumatoid arthritis patients treated with Enbrel (FIG. 22)"}}}
{"molecule": "C[C@]12C=CC(=O)C=C1CC[C@@H]1[C@@H]2C(=O)C[C@@]2(C)[C@H]1CC[C@]2(O)C(=O)CO", "note": "[prednisone]", "values": [{"measurement": "inflammatory gene expression relative to baseline", "setting": "[1]; 2 hr post dose", "value": "decreased expression of most of inflammation-related gene loci"}, {"measurement": "inflammatory gene expression relative to baseline", "setting": "[1]; 24 hr post dose, loci reduced at 2 hours", "value": "elevated gene expression levels"}, {"measurement": "inhibitory effect on gene expression of the 5 loci", "setting": "[2]; 24 hours post administration", "value": "no longer apparent"}, {"measurement": "number of the 5 loci with gene expression higher than at t=0 (rebound effect)", "setting": "[2]; 24 hours post administration", "value": 3}, {"measurement": "gene expression of the 5 loci in relation to t=0", "setting": "[2]; two-hour sample", "value": "dramatically reduced gene expression"}, {"measurement": "acute inflammation index", "setting": "[3]", "value": "goes up"}]}
{"molecule": "CN(Cc1cnc2nc(N)nc(N)c2n1)c1ccc(C(=O)N[C@@H](CCC(=O)O)C(=O)O)cc1", "note": "[methotrexate]", "values": [{"measurement": "inflammation index", "setting": "[4]; 10 stable rheumatoid arthritis patients treated with methotrexate (FIG. 21)", "value": "elevated compared to normal"}, {"measurement": "inflammation index values in comparison to the normal distribution", "setting": "[4]; rheumatoid arthritis patients treated with MTX who are about to change therapy (FIG. 17C)", "value": "skewed upward"}]}
{"molecule": "polymyxin B", "values": [{"measurement": "effect on the response of IL1B locus to E. coli filtrate", "setting": "[5]", "value": "did not affect the response"}]}
{"molecule": "Remicade: another TNF inhibitor", "values": [{"measurement": "inflammation index", "setting": "[4]; 10 stable rheumatoid arthritis patients treated with Remicade (FIG. 23), all but one of the patients", "value": "at or below normal"}, {"measurement": "inflammation index suggesting immunosuppressive response", "setting": "[4]; two of the 10 rheumatoid arthritis patients treated with Remicade (FIG. 23)", "value": "abnormally low inflammation index"}, {"measurement": "infections in treated subjects", "setting": "[6]", "value": "associated with serious infections in some subjects"}, {"measurement": "inflammation index", "setting": "[7]; 24 hours after the first treatment", "value": "returned to the normal range"}, {"measurement": "inflammation index", "setting": "[7]; just prior to the second dose", "value": "elevated"}, {"measurement": "inflammation index", "setting": "[7]; prior to the third dose", "value": "in the normal range"}]}
{"molecule": "Enbrel", "values": [{"measurement": "inflammation index", "setting": "[4]; [8]", "value": "comes much closer to normal"}, {"measurement": "patients with inflammation index in the normal range", "setting": "[4]; [8]", "value": 80, "unit": "%"}]}
